Results reported in US10618937B2, “Method of treating Alzheimer's disease” (INDUSTRY-ACADEMIC COOPERATION FOUNDATION GYEONGSANG …, priority 2016, dated 2020).

What was measured:
[1] = test system: APP/PS1 model mice; test: Western blot analysis of cortex and hippocampus of APP/PS1 model mice; format: in vivo
Procedure: Male C57BL/6J wild type mice and double transgenic B6.Cg-Tg (APPswe, PSENdE9) 85Dbo Mmjax (APP/PS1) AD-model mice were obtained from Jackson Laboratories (Bar Harbor, Me., USA). The brains of the double transfected mice express Swedish mutation-containing chimeric mouse-human amyloid precursor protein (Mo/HuAPP695swe) and mutant human presenilin 1 protein (PS1-dE9). The mice were fed with an unlimited supply of food and water at an animal breeding ground of a university at a temperature of 23° C., at the relative humidity of 60±10% and in the black and light cycle of 12 h/12 h. […] The maintenance and treatment for mice were performed according to the guidelines of the Animal Ethics Committee (IACUC) issued by Department of Biology, Division of Applied Life Science of Gyeongsang National University in Korea. Experiments according to the present disclosure were conducted according to the guidelines approved by the guidelines of the Animal Ethics Committee (IACUC) issued by Department of Biology, Division of Applied Life Science of Gyeongsang National University in Korea (approval ID: 125).
The novel peptide according to the present disclosure was dissolved in bi-deionized distilled water, and administered while being finally included in physiological saline. The novel peptide according to the present disclosure was intraperitoneal injection (IP) administered to APP/PS1 and wild-type (WT) mice in a dose of 5 mg/kg/day at an interval of 2.5 days for 30 days to 45 days. Wild-type mice and APP/PS1 transfected mice were treated with the same volume of physiological saline, and after behavioral analysis, the animal models were sacrificed for further biochemical and immunohistochemical analysis.
Protein concentrations were measured by using a BIORAD protein assay kit (BIORAD LABORATORIES, CA, USA). Equal amounts of protein (15 to 25 μg) were electrophoresed under the same experimental conditions using 4 to 12% BLOT™ minigel and MES SDS electrophoresis buffer (running buffer) 1×(NOVEX, LIFE TECHNOLOGIES, Kiryat Shmona, Israel), and a broad range prestained protein marker (GANGNAM STAIN™, Intron Biotechnology) was used as the control for the molecular size. To reduce nonspecific binding, the membranes used were blocked with 5% (w/v) skim milk and reacted with a primary antibody (a 1:1000 dilution) overnight at 4° C. After an appropriate reaction with a horseradish peroxidase (HRP)-binding secondary antibody, proteins were detected by using an ECL detection reagent (AMERSHAM PHARMECIA BIOTECH, Uppsala, Sweden) according to the manufacturer's instructions. The X-ray film was scanned and the optical density of the band was analyzed using a densitometry using a computer-based Sigma Gel program, version 1.0 (SPSS, Chicago, Ill., USA).
For use as the primary antibody, anti-amyloid β (Aβ), anti-APP, anti-AdipoR1 (Adiponectin receptor 1), anti-phospho-AMPK, anti-SNAP-25 (Synaptosomal-Associated Protein 25), anti-SAP-102, anti-Syanpatophysin, phospho-Tau (Ser 413), anti-p-mTOR, anti-p-ULK1, and anti-β-actin were used.

[2] = test system: APP/PS1 model group; test: In vivo electrophysiology and LTP analysis (hippocampus slice); design: species or system mice; conditions: hippocampus slice CA1, after pairing stimuli, treated APP/PS1 model group
Procedure: A hippocampus slice was prepared from adult mice to examine the CA1 circuit from the cross-sectional schaffer collateral (SC) input in the hippocampus slice ([…] thickness). Briefly, after anesthetizing the mice with isoflurane, the brains were quickly cooled by transcardiac perfusion with ice-cold cross-cerebrospinal fluid (CSF). After the brain was removed, the brains were stored in ice-cold sucrose-artificial CSF. A coronal section was cultured in artificial CSF at a temperature of 35° C. for 30 minutes, and cultured in artificial CSF at room temperature (23° C. to 25° C.) for 1 to 4 hours before being transferred to the recording chamber. […]
LTP experiments were performed at 27° C. to 29° C. […] Stimulation was applied to the shaper-side branch (SC) pathway using a concentrated bipolar electrode located at […] from the soma of the recorded cells. […] In the LTP experiment, baseline EPSCs were measured for 3 min before applying the pairing stimuli (2 Hz, 2-minute stimulation, and post-synaptic depolarization to 0 mV). […]

[3] = hippocampus of APP/PS1 mice, 9 months and 12 months
[4] = hippocampus, 9 months and 12 months
[5] = hippocampus, 9 months and 12 months after treatment

Substance: RGPCG (adiponectin receptor-activating peptide) [5AA1]
- expression of p-ULK1 protein ([1]; APP/PS1 mice): suppression of the expression
- expression of p-mTOR protein ([1]; APP/PS1 mice): suppression of the expression
- APP in the cortex ([1]; cortex of APP/PS1 mice): statistically significantly reduced
- amyloid-β oligomer (Aβ oligomer) in the cortex ([1]; cortex of APP/PS1 mice): statistically significantly reduced
- expression level of p-Tau (Ser404) ([1]; hippocampus of APP/PS1 mice): remarkably decreased levels
- expression level of p-Tau (Ser413) ([1]; hippocampus of APP/PS1 mice): remarkably decreased levels
- expression level of AdipoR1 [1, 3]: remarkably increased levels
- expression level of SIRT-1 [1, 3]: remarkably increased levels
- expression level of pAMPK [1, 3]: remarkably increased levels
- expression level of AAP in the hippocampus [1, 4]: decreased
- expression level of Aβ in the hippocampus [1, 4]: decreased
- expression level of SAP-102 [1, 5]: remarkably increased levels
- expression level of SNAP-25 [1, 5]: remarkably increased levels
- expression level of Synaptophysin [1, 5]: remarkably increased levels
- level of EPSC enhancement (LTP) [2]: almost the same as that of the normal group
